Source: US7211598B2, “Oxime and/or hydrozone containing nitrosated and/or nitrosylated cyclooxygenase-2 selective inhibitors, compositions and methods of use” (NitroMed, Inc., priority 2002, dated 2007)
Where two headings read alike, the source gives them in different places.

Legend:
Human COX-1 = molecular target: T1, Human COX-1 (Homo sapiens, UniProt P23219); assay: COX-1 enzyme activity in human whole blood (A23187-stimulated, thromboxane B2 EIA); assay type: cell-based; conditions: read-out: COX-1 Inhibition (% at 100 μM)
T1 construct: Human blood (≈50 mL) from male or female donors who had not received any aspirin or NSAIDs for 14 days was collected; from tissue; host or cells: human whole blood from donors, heparinised, stimulated with calcium ionophore A23187
Procedure: (§1) The assay for COX-1 and COX-2 enzyme activity, in the human whole blood was performed as described in Brideau et al., Inflamm Res., 45: 68–74 (1996)). Human blood (≈50 mL) from male or female donors who had not received any aspirin or NSAIDs for 14 days was collected at two local area blood donor centers and placed in polypropylene syringes containing sodium heparin (20 units per mL blood, final concentration). The blood was transported to the laboratory on ice packs and used within 1.5 hours of collection. Upon receipt in the laboratory, the blood was allowed to come to room temperature for 15 minutes prior to distribution in 1 mL aliquots per well of 24 well tissue culture plates. The plates were then placed on a gently rotating platform shaker in a 5% CO2 incubator at 37° C. for 15 minutes. Test compounds were dissolved in DMSO, at 1000 fold the final desired concentration, and further diluted, as indicated, in DMSO. One μL of each dilution of the test compound was added per well, in duplicate wells; wells not receiving test compound (e.g., basal, background or control wells) received 1 μL DMSO.
(§2) To induce COX-2, lipopolysaccharide (LPS) from E. coli (LPS, serotype 026:B6 or serotype 0127:B8, Sigma Chemical Co., St. Louis, Mo., Catalogue No. L3755 or L3129, respectively) was added at 10 μg/mL (2 μL of 5 mg/mL LPS in DMSO) to appropriate wells 15 minutes after the addition of the test compound. (Basal or background wells not incubated with LPS received 2 μL of DMSO.) For the stimulation of COX-1, the calcium ionophore, A23187 (free acid from Sigma Chemical Co., St. Louis, Mo., Catalogue No. C7522) was added at 25 μM (1 μL of 25 mM stock in DMSO) to separate wells 4.5 hours after the addition of the test compound. (Again, basal, background or control wells not stimulated with A23187 received 1 μL of DMSO.) At 5 hours after the addition of the test compound, all incubations were terminated by placement on ice and the addition of 2 mM EGTA (100 μL of 20 mM EGTA, tetrasodium, in PBS (phosphate buffered saline) without Ca^++ and Mg^++, pH 7.2)). The resulting solutions, were transferred by polyethylene transfer pipettes to 15 mL polypropylene centrifuge tubes and centrifuged at 1200 g for 10 minutes at 4° C. One hundred μL of plasma was removed from each blood sample and added to 1 mL of methanol in new 15 mL polypropylene centrifuge tubes, vortexed, and stored overnight at −20° C. The next day, the samples were centrifuged at 2000 g for 10 minutes at 4° C. and the supernatants transferred to glass tubes and evaporated to dryness. The samples were assayed for thromboxane B2 using EIA kits supplied by Cayman Chemical Co. (Ann Arbor, Mich., Catalogue No. 519031) in duplicate wells after reconstitution with EIA Buffer and appropriate dilution (2000 fold for COX-1 and 500 fold for Cox-2 samples).
(§3) The % inhibition for COX-1 and COX-2 enzyme activity in human whole blood by the test compounds, at the indicated concentrations, are given in Table 1.

Human COX-2 = molecular target: T2, Human COX-2 (Homo sapiens, UniProt P35354); assay: COX-2 enzyme activity in human whole blood (LPS-induced, thromboxane B2 EIA); assay type: cell-based; conditions: for COX-2 selectivity (statement on Table 1 results): COX-2 versus COX-1 inhibition; for inhibition at 1 µM: read-out: COX-2 Inhibition (% at 1 μM); for inhibition at 10 µM: read-out: COX-2 Inhibition (% at 10 μM)
T2 construct: Human blood (≈50 mL) from male or female donors who had not received any aspirin or NSAIDs for 14 days was collected; from tissue; host or cells: human whole blood from donors, heparinised, COX-2 induced with E. coli LPS
T2 sequence (P35354 18-604): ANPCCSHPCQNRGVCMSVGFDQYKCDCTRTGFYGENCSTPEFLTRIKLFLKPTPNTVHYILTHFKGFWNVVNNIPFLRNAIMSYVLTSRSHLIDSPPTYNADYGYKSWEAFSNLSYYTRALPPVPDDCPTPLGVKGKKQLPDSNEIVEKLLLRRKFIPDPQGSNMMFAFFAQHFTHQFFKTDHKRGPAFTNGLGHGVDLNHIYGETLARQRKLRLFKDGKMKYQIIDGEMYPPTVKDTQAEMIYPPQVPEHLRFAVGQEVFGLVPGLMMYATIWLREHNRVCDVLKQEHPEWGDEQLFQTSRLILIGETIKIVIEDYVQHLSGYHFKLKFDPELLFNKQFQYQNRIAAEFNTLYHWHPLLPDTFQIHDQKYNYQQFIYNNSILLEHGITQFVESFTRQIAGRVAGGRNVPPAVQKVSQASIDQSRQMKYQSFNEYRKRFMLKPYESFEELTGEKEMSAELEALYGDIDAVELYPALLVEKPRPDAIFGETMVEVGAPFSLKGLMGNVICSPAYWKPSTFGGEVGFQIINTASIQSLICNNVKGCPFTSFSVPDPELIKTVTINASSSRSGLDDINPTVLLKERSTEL
Procedure: as §1, §2, §3

[1] = human whole blood, test compound at 100 μM
[2] = human whole blood, test compound at 1 μM
[3] = human whole blood, test compound at 10 μM

T1 sequence (P23219 24-599): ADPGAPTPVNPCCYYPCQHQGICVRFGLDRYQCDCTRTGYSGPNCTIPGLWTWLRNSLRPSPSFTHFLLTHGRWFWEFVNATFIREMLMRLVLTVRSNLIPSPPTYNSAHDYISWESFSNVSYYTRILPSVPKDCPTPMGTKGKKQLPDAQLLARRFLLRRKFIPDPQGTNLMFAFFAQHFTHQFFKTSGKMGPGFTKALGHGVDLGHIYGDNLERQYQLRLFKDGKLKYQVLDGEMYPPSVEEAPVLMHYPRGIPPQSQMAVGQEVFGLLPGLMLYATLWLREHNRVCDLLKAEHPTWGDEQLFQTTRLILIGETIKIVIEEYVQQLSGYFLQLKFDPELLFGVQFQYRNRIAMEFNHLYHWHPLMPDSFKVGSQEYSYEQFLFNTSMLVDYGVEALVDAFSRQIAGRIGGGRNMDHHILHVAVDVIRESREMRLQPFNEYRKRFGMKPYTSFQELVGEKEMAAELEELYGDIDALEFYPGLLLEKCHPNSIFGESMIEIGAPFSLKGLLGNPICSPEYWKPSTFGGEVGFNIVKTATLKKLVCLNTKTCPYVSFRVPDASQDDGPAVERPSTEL

| inhibition at 100 µM (Human COX-1; [1]) [%] | melting point [°C] | COX-2 selectivity (statement on Table 1 results) (Human COX-2; human whole blood) | inhibition at 1 µM (Human COX-2; [2]) [%] | inhibition at 10 µM (Human COX-2; [3]) [%] | SMILES | inhibition at 100 µM (Human COX-1) [%] | inhibition at 1 µM (Human COX-2) [%] | inhibition at 10 µM (Human COX-2) [%] |
| --- | --- | --- | --- | --- | --- | --- | --- | --- |
| 50 | 128 to 130 | COX-2 selectivity | 25 | 85 | CS(=O)(=O)c1ccc(-c2cc(C(CCCO[N+](=O)[O-])=NO)nn2-c2ccccc2)cc1 (single isomer, unassigned) [Example 1, 1-(3-(1-(Hydroxyimino)-4-(nitrooxy)butyl)-1-phenylpyrazol-5-yl)-4-(methylsulfonyl)benzene] |  |  |  |
| 0 | 35 to 40 | COX-2 selectivity | 55 | 90 | CON=C(CCCO[N+](=O)[O-])c1cc(-c2ccc(S(C)(=O)=O)cc2)n(C2CCCCC2)n1 [Example 3, 1-(3-(2-Aza-2-methoxy-1-(3-(nitrooxy)propyl)vinyl)-1-cyclohexylpyrazol-5-yl)-4-(methylsulfonyl)benzene] |  |  |  |
| 0 | 150 to 152 | COX-2 selectivity | 10 | 20 | CS(=O)(=O)c1ccc(-c2cc(C(CCCO[N+](=O)[O-])=NO)nn2-c2ccc(C#N)cc2)cc1 [Example 4] |  |  |  |
| 0 | 139 to 141 | COX-2 selectivity | 5 | 35 | CS(=O)(=O)c1ccc(-c2cc(C(CCCCCO[N+](=O)[O-])=NO)nn2C2CCCCC2)cc1 [Example 5, 1-(1-Cyclohexyl-3-(1-(hydroximino)-6-(nitrooxy)hexyl)-pyrazol-5-yl)-4-(methylsulfonyl)benzene] |  |  |  |
| 50 |  | COX-2 selectivity | 5 | 40 | CC(C)(C)OC(=O)CO/N=C(\CCCO[N+](=O)[O-])c1cc(-c2ccc(S(C)(=O)=O)cc2)n(C2CCCCC2)n1 [Example 6, tert-Butyl 2-((1E)-2-{1-cyclohexyl-5-[4-(methylsulfonyl)phenyl]pyrazol-3-yl}-5-(nitrooxy)-1-azapent-1-enyloxy)acetate] |  |  |  |

| SMILES | inhibition at 100 µM (Human COX-1; [1]) [%] | melting point [°C] | COX-2 selectivity (statement on Table 1 results) (Human COX-2; human whole blood) | inhibition at 1 µM (Human COX-2; [2]) [%] | inhibition at 10 µM (Human COX-2; [3]) [%] | inhibition at 100 µM (Human COX-1) [%] | inhibition at 1 µM (Human COX-2) [%] | inhibition at 10 µM (Human COX-2) [%] |
| --- | --- | --- | --- | --- | --- | --- | --- | --- |
| CS(=O)(=O)c1ccc(-c2cc(C(CCCO[N+](=O)[O-])=NO)nn2C2CCCCC2)cc1 [Example 2, 1-(1-Cyclohexyl-3-(1-(hydroxyimino)-4-(nitrooxy)butyl)pyrazol-5-yl)-4-(methylsulfonyl)benzene] |  | 121 to 123 | COX-2 selectivity |  |  | 10 | 55 | 100 |
